The record followed here is PubChem BioAssay (NCI).

Each structure is given as a SMILES string.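 Five compound concentrations were applied to cells in 96-well plates for 48 hours; endpoints were derived by simple linear interpolation of the resulting dose-response curve. GI50: concentration for 50% inhibition of growth. TGI denotes the concentration required for complete inhibition of growth.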 Where only a bound is given, the exact number is not on record here.

Common to all, as to assay: NCI anticancer screen, dose series, 48 h
The test system of test [1] is A498 renal.
Test [2] concerns HOP-62 NSCLC.
The test system of test [3] is HS 578T breast.
The test system of test [4] is KM12 colon.
The subject of test [5] is NCI-H522 lung.
For test [6], the system named is NCI/ADR-RES ovarian.
The subject of test [7] is OVCAR-3 ovarian.
In test [8] the test system is SK-MEL-2 melanoma.
Test [9] deals with SK-MEL-5 melanoma.
Test [10] concerns BT-549 breast.

Take `O=c1[nH]nc(-c2ccccc2)n1O`: the TGI in [1], in [2], in test [3], in test [4], in test [5] and in test [6] was above 100 µM throughout. The TGI in test [7], in test [8] and in test [9] was above 100 µM in each case.
Consider `CCC1C(c2ccccc2O)c2cc3c(cc2OC1N1CCOCC1)OCO3` (centres undefined), for which the TGI in test [1] worked out at 27.5 µM; in test [10] it was 29.3 µM; in [2], 28.8 µM; in test [3], 39.6 µM; in [4] it was 27.7 µM; in test [5], 28 µM. For the same molecule, the figures for the TGI in [7], in test [8] and in test [9] were 25.4 µM, 30.8 µM and 30.5 µM, respectively.
On to `CN=C(Nc1cccc(C(F)(F)F)c1)SCc1ccc(N=C=S)cc1`, for which the TGI in test [1] was determined as 34.6 µM; in test [2] it was 31.7 µM; in test [3] it was 54.2 µM; in test [4], 29.3 µM; in [5], 22.4 µM; in test [6], 61.3 µM. Besides, the TGI in test [8] was determined as 25.6 µM; in [9], 30.1 µM.
Consider `O=c1[nH]c(Nc2nc3ccccc3[nH]2)nc(O)c1Cc1ccccc1`, for which the TGI in test [1], in test [10], in [3], in test [4], in test [5] and in [6] was above 100 µM each time. For the same molecule, the TGI in test [8] and in [9] was above 100 µM throughout.
With `COc1ccc(NC(=O)C(=O)/C=C(\O)c2ccccc2)cc1`, the TGI in [2], in test [4] and in [9] was above 10 µM throughout.
Consider `C=CCOc1ccc(C2C(C(=O)OC)C(=O)CC(O)(c3ccccc3)C2C(=O)OC)cc1OC` (centres undefined), for which the TGI is 76.4 µM in test [1]; above 100 µM in test [10]; above 100 µM in test [2]; above 100 µM in [4]; 50.5 µM in test [5]; 66 µM in test [6]. The TGI in test [7], in test [8] and in test [9] was above 100 µM each time.
Consider `COc1cc(O)c2c(=O)c(OC)c(-c3ccc(OC)c(OC)c3)oc2c1`, for which the TGI in test [1] was above 100 µM; in test [2], above 100 µM; in test [5], 15 µM; in [6] it was above 100 µM; in test [7], above 100 µM; in test [9], above 100 µM. In addition, the GI50 in test [2] was 58.5 µM; in [6] it was 62.7 µM; in [7], above 100 µM; in test [9], 82 µM.
Consider `COc1cc(CNc2nc3ccccc3nc2C(=O)O)cc(OC)c1OC`, for which the TGI in test [1], in test [10], in test [2], in test [3], in test [4] and in test [5] was above 100 µM throughout. In addition, the TGI in test [6], in test [7] and in test [9] was above 100 µM throughout.
Regarding `CN(C)CCNC(=O)c1cccc2c(NC(CCC(N)=O)C(=O)O)c3ccccc3nc12` (centres undefined), the TGI in test [1] was 37.2 µM; in test [10], 33.4 µM; in [2], 47.8 µM; in test [4], 59.1 µM; in [5], 22.3 µM; in [6], above 100 µM. The TGI in test [7] was above 100 µM; in test [8], 25.4 µM; in test [9], 31.4 µM.
For the molecule `COc1ccc(C(=O)/C=C/c2ccc(OCC#N)cc2)cc1`, the TGI in test [1] was 96.3 µM; in test [10] it was 31.6 µM; in test [2], above 100 µM; in test [3], above 100 µM; in test [4] it was 32.6 µM; in test [5], 35.6 µM. The TGI in [6] is 50 µM; in [7], above 100 µM; in test [9], 28.4 µM.
`O=C1CCCC/C1=C\c1ccc(Cl)c(Cl)c1`: the TGI in test [1] was above 100 µM; in test [2], above 100 µM; in test [9], 32.5 µM.
As for `C=C1CC[C@@H](C)[C@](C)(CCc2ccoc2)C/C=C\C=C/1C(=O)O`, the TGI was above 100 µM in [1]; 49.1 µM in test [10]; above 100 µM in test [2]; above 100 µM in test [3]; above 100 µM in test [4]; above 100 µM in test [6]. For the same molecule, the TGI in [7] is 42.9 µM; in test [8], 43.8 µM; in [9], above 100 µM.
Turning to `COc1cc(Oc2nc3ccc(C(F)(F)F)cc3nc2-c2ccccc2)cc(OC)c1OC`, the TGI was above 100 µM in test [1]; 56 µM in test [10]; 44.4 µM in [2]; above 100 µM in test [3]; above 100 µM in test [4]; above 100 µM in [5]. The TGI was above 100 µM in [6], 97.1 µM in test [7] and 44.9 µM in [9].
Consider `COC(=O)Cc1c(-c2c(CC(=O)OC)c3ccccc3n2C2OC(COC(C)=O)C(OC(C)=O)C(OC(C)=O)C2OC(C)=O)[nH]c2ccccc12` (centres undefined), for which the TGI in test [1], in test [10], in test [2], in [4], in test [5] and in test [7] was above 100 µM in each case. In addition, the TGI in test [8] and in [9] was above 100 µM throughout.
For `CO/N=C1/c2sccc2[C@H](NC(=O)C(Cc2ccccc2)NC(=O)OC(C)(C)C)[C@@H]1O` (some centres undefined), the TGI in [1], in test [10], in test [2], in test [3], in test [6] and in [7] was above 100 µM throughout. Besides, the TGI in test [8] and in test [9] was above 100 µM each time.
Take `CC1CC(C#N)=C2NCCN2C1=O` (centres undefined): the TGI in test [10], in test [2], in [3], in test [4], in test [5] and in test [6] was above 100 µM throughout. The TGI in test [7] was above 100 µM; in [8] it was above 100 µM; in [9], 28.5 µM.
